Assay results reported in patent publication US11970439B1, “8-(4-chlorobenzylideneamino)naphthalene-1,3-disulfonic acid as an antioxidant compound” (KING FAISAL UNIVERSITY, priority 2023, dated 2024).

Assay: DPPH radical scavenging antioxidant test
Type: biochemical
Details: 517 nm; for Inhibition (radical scavenging inhibition): compound 3 μM in ethanol, 0.2 mL DPPH (0.75 mM), 30 min incubation in the dark
Procedure: The antioxidant properties of the 8-(4-chlorobenzylideneamino)naphthalene-1,3-disulfonic acid were studied by adding 0.2 mL DPPH (0.75 mM)) to compound 8-(4-chlorobenzylideneamino)naphthalene-1,3-disulfonic acid (III) (3 μM) in ethanol. After 30 min of incubation in the dark, the absorbance was read against a blank at 517 nm. Ascorbic acid (vitamin C) was used as standard antioxidants (positive control). A blank sample was prepared by 0.2 ml of DPPH in 3 ml ethanol. A negative control sample was run using ethanol instead of the sample. The radical scavenging inhibition was calculated using the following equation: […]

| Compound | antioxidant potential in DPPH in vitro test (in words) (DPPH, vitamin C as positive control) | Inhibition (radical scavenging inhibition) [%] |
| --- | --- | --- |
| O=S(=O)(O)c1cc(S(=O)(=O)O)c2c(/N=C/c3ccc(Cl)cc3)cccc2c1 [Product III, 8-(4-chlorobenzylideneamino)naphthalene-1,3-disulfonic acid] | high potential as an antioxidant compared to vitamin C | 50 |
| O=C1O[C@H]([C@@H](O)CO)C(O)=C1O [vit c, Ascorbic acid, reference compound] |  | 74 |
